According to patent publication US20240391859A1, “ALDEHYDE COMPOSITION” (MITSUBISHI GAS CHEMICAL COMPANY, INC., priority 2021, published 2024):

What was measured:
[1] = Evaluation of threshold of smell; details: diluted with dipropylene glycol; lower limit concentration at which smell can be distinguished
Procedure: A filter paper having a width of 8 mm and a length of 15 cm was impregnated with each diluent and a lower limit concentration at which smell can be distinguished by a method in which a specialized panelist sniffs was evaluated. As the lower limit concentration is lower, the threshold of smell is lower, and the intensity and diffusibility of the aroma are more excellent.

Bhas42 cells = experiment: Carcinogenicity prediction test (transformation test based on OECD GD231); type: cell-based; details: in vitro
Procedure: Using the aldehyde compositions obtained in Examples and Lilial (3-(p-tert-butylphenyl)-2-methylpropanal), a transformation test (an in vitro carcinogenicity prediction test using Bhas42 cells) was performed based on OECD GD231 to determine whether the carcinogenicity was negative or positive. When the result of this test is negative, it is predicted that there is no possibility of causing carcinogenicity, and safety is high.

CC(C=O)Cc1ccc(C(C)(C)C)cc1 (centres unmarked) [Comparative Example 5, 3-(p-tert-butylphenyl)-2-methylpropanal]
Threshold of smell [1]: 1 ppm
Carcinogenicity prediction test (Bhas42 cells): Positive
